Structures are written as SMILES. The source made the active and inactive calls. No rule for the calls is given here.

The target of the test is T-cell receptor (TCR)-CD3 interaction, human (TCR alpha chain TRAV4). Description: potency of TCR-CD3 interaction inhibitors, dose response, biochemical, fluorescence, TAMRA-labeled TCR probe (AID 686957). The settings on record: TCR-CD3 binding.

As a reminder, the IC50 is the point on the concentration scale where inhibition reaches its midpoint. As for `Cn1c(SCC(=O)NNC(=O)c2ccccc2O)nnc1-c1ccccc1`, the IC50 was > 94.2 µM (inactive).

For the compound `O=C1C=C(NCCc2cc(Br)c(O)c(Br)c2)C(=O)c2ncccc21`, the IC50 entry is “inactive”. Under `O=C(CSc1nnc(-c2ccccc2)n1Cc1ccccc1)NNC(=O)c1ccccc1O` stands > 94.1 µM (inactive); under `Cc1ccc(C(=O)NNC(=O)c2ccc3ccccc3c2O)cc1`, > 94 µM (inactive); under `O=C(NNC(=S)NC(=O)c1cccc([N+](=O)[O-])c1)c1ccc(O)cc1`, > 94 µM (inactive). `O=c1c2c(-c3ccc(Cl)cc3)csc2ncn1/N=C/c1cccc([N+](=O)[O-])c1O`: the IC50 is > 94.1 µM (inactive). Under `CC(=O)NC(CC(=O)NNC(=O)c1cc2ccccc2cc1O)c1ccccc1` (stereo not given) stands > 94.1 µM (inactive); under `COc1cc(O)c(/C=N/NC(=O)c2ccncc2)c(OC)c1[N+](=O)[O-]`, > 94.1 µM (inactive); under `O=C(NC(C(=O)N/N=C/c1cc([N+](=O)[O-])ccc1O)c1n[nH]c(=O)c2ccccc12)c1ccccc1` (stereo not given), > 94.1 µM (inactive). Under `O=C(NNC(=O)C1CCN(S(=O)(=O)c2ccccc2C(F)(F)F)CC1)c1ccccc1O` stands > 94.1 µM (inactive); under `Nc1c(C(=O)NCC2CCCO2)sc2nc3c(c(-c4ccco4)c12)CC/C3=C\c1ccco1` (stereo not given), “inactive”. Take `O=C(N/N=C/c1cn(Cc2cccc(F)c2)c2ccccc12)c1cc(O)cc(O)c1`: the IC50 is > 94.1 µM (inactive).

Regarding `O=C1C=C(O)c2c(O)cc(O)c(O)c2C1=O`, the IC50 was > 94.1 µM (inactive). For `COc1ccc(C(=O)NNC(=S)NC(=O)c2cccs2)cc1` the value was > 94 µM (inactive); for `COc1ccc(NS(=O)(=O)c2cc(NC(=O)/C=C/c3cc(OC)c(OC)c(OC)c3)ccc2N2CCCCC2)cc1`, > 94.1 µM (inactive); for `Cc1cc(C)c(-c2cc(NC(=O)COC(=O)c3ccc(NC(=O)CC#N)cc3)n(-c3ccccc3)n2)cc1C`, > 94.1 µM (inactive). For `O=C(CCN1CCN(c2ccccc2)CC1)N/N=C/c1ccc(O)c(O)c1O` the value was > 94.1 µM (inactive); for `Cc1cccc(C(=O)NCC(=O)NNC(=O)c2ccccc2O)c1`, > 94 µM (inactive); for `O=C(CSc1nnc(-c2ccccc2O)n1Cc1ccccc1)NNC(=O)c1ccccc1O`, > 94.1 µM (inactive).

As for `CCc1ccccc1NC(=O)NNC(=O)c1ccc2ccccc2c1O`, the IC50 is > 94.1 µM (inactive). Under `CNC(=S)N/N=C/c1cc(Br)cc(Br)c1O` stands > 94.1 µM (inactive); under `COCCn1c(=NC(=O)c2cc(-c3cccs3)nc3ccccc23)sc2cc(S(N)(=O)=O)ccc21`, > 94.1 µM (inactive); under `Nc1ccc2nc3c(=O)[nH]c(=S)[nH]c3nc2c1`, 3.74 µM.

Turning to `O=C(N/N=C/c1cc(Br)cc(Br)c1O)c1cccc(N2CCCC2=O)c1`, the IC50 was > 94.1 µM (inactive). On to `O=C(N/N=C/c1c(O)n(Cc2ccco2)c(=O)[nH]c1=O)c1ccccc1`, for which the IC50 is > 94.2 µM (inactive). In the case of `Cc1cc(Br)cc(/C=N/NC(=O)c2ccc3c(c2)OCO3)c1O`, the IC50 was > 94.1 µM (inactive).

Consider `Cc1cc2oc3ccc(NCCCn4ccnc4)cc3c(=O)c2cc1C`, for which the IC50 is > 94.1 µM (inactive).

Take `O=C(NNC(=O)C1CCN(S(=O)(=O)c2ccccc2)CC1)c1ccccc1O`: the IC50 is > 94.1 µM (inactive). Under `COc1ccccc1N(C)S(=O)(=O)c1ccc(C(=O)NNC(=O)c2ccccc2O)cc1` stands > 94.1 µM (inactive); under `COc1ccccc1NC(=O)NNC(=O)c1cc2ccccc2cc1O`, > 94.1 µM (inactive); under `COc1ccc(C(=O)C=CNNC(=O)c2ccc(Cl)cc2)cc1`, > 94.1 µM (inactive). For `O=C(NNC(=S)NC(=O)c1cccs1)c1ccc(O)cc1`, the IC50 is > 94 µM (inactive). Under `O=C(O)c1ccccc1NS(=O)(=O)c1ccc(N/N=C/c2ccc(O)c(O)c2)c([N+](=O)[O-])c1` stands “inactive”; under `Cc1cc(C)c(C)c(S(=O)(=O)N2CCC(C(=O)NNC(=O)c3ccccc3O)CC2)c1C`, > 94.1 µM (inactive); under `Oc1c(Br)cc(Br)cc1/C=N/NC(=S)N[C@H]1CC2C=CC1C2` (stereo not given in full), > 94.1 µM (inactive). Under `O=C(N/N=C/c1ccc(O)c(O)c1)N/N=C/c1ccc(O)c(O)c1` stands 1.03 µM. As to `CC(=O)c1ccc(NC(=O)CN2C(=O)/C(=C/C(C)=C/c3ccccc3)SC2=S)cc1`, the IC50 was > 94.1 µM (inactive). For `O=c1c(CO)cc(CO)cc(CO)c1O` the value was “inactive”; for `O=C1Nc2ccccc2/C1=N\N=C\c1ccc(O)c(O)c1`, > 94.1 µM (inactive). Under `Cc1[nH]n(-c2ccccc2)c(=O)c1N=Nc1ccccc1O` stands > 94.1 µM (inactive); under `COc1ccccc1C(=O)NNC(=O)c1ccc2ccccc2c1O`, > 94.2 µM (inactive). Consider `CNC(=S)NNC(=O)c1cccn(Cc2ccc(Cl)c(Cl)c2)c1=O`, for which the IC50 is > 94 µM (inactive). For `C=CCNC(=S)NNC(=O)c1cccn(Cc2cccc(Cl)c2)c1=O`, the IC50 was > 94.1 µM (inactive). As to `O=c1cc(-c2ccc(O)cc2)oc2cc(O)c(C3OC(CO)C(O)C(O)C3O)c(O)c12` (stereo not given), the IC50 is > 94.1 µM (inactive).

Turning to `CCc1n[nH]c(=S)n1/N=C/c1cc(OC)cc([N+](=O)[O-])c1O`, the IC50 entry was “inactive”. For `O=C(CCN1C(=O)/C(=C\c2ccccc2)SC1=S)NNC(=O)c1ccccc1O` the value was > 94.1 µM (inactive). For `O=C(O)CC(CCc1ccccc1)OC1OC(CO)C(O)C(O)C1O` (stereo not given) the value was > 94.1 µM (inactive). For `Cc1ccc(NC(=O)NNC(=O)c2cc3ccccc3cc2O)cc1` the value was > 94.1 µM (inactive); for `Cc1ccccc1NC(=O)NNC(=O)c1ccc2ccccc2c1O`, > 94.2 µM (inactive); for `COc1ccc(CC(=O)N/N=C/c2cc([N+](=O)[O-])cc(Br)c2O)cc1`, > 94.1 µM (inactive).

Regarding `O=C(CNC(=O)c1cccc(Br)c1)N/N=C/c1cc(Br)cc(Br)c1O`, the IC50 is > 94.1 µM (inactive). Under `Cc1nc(S/C(=C/c2ccc(-c3ccc(C(=O)O)cc3)o2)C(=O)O)n[nH]1` stands > 94.2 µM (inactive); under `O=C1/C(=C/c2ccco2)SC(=S)N1c1cccnc1`, > 94.1 µM (inactive); under `CN(C(=O)COC(=O)c1cc(-c2ccco2)nc2ccccc12)C1CCS(=O)(=O)C1` (stereo not given), “inactive”. With `Cc1c(NC(=S)N/N=C/c2cc([N+](=O)[O-])ccc2O)c(=O)n(-c2ccccc2)n1C`, the IC50 was > 94.1 µM (inactive).

`COc1cc2ccccc2cc1C(=O)NNC(=O)c1ccccc1O`: the IC50 is > 94.2 µM (inactive). With `O=c1cc(-c2ccc(O)c(O)c2)oc2c1ccc1ccccc12`, the half-maximal inhibitory concentration (IC50) is 6.25 µM.

As for `COC(=O)c1cc(O)c(O)c(O)c1`, the IC50 is > 94.3 µM (inactive). With `COc1ccc(C(=O)NNC(=S)NC(=O)c2cccc([N+](=O)[O-])c2)cc1`, the IC50 was > 94.1 µM (inactive). Under `C=CCn1c(O)c(N=NC(=O)CNC(=O)/C=C/c2ccco2)c2ccccc21` stands > 94.1 µM (inactive).

Values taken from PubChem BioAssay AID686957 (The Scripps Research Institute Molecular Screening Center, 2013).
